Test system: 857933-349-R-J2-PDC complex spheroid viability
Test: Anticancer human tumor 857933-349-R-J2-PDC patient-derived colon adenocarcinoma cell line growth inhibition [POLQ]
Settings: for IC50: curve of first compound; for viability, T/C: stronger effect = lower value
Protocol: Multicellular complex tumor spheroid response to Polymerase (POL) inhibitors (novobiocin, ART-558, RP6685) in combination with a variety of drugs and investigational agents in selected tumor cell lines
The POL inhibitors (novobiocin, ART-558, and RP6685) were evaluated both individually and in combination with standard of care and investigational anticancer small molecules within a complex spheroid model of solid tumors. . Complex spheroids include a stromal component modeled by human endothelial cells (HUVEC) and fibroblasts modeled by human mesenchymal stem cells (MSCs). The concentration ranges selected for each drug and investigational agent were based upon clinically achievable concentrations if the clinical Cmax of the agent was known.
Compounds. The drugs and investigational agents: novobiocin (NSC847541), ART-558 (NSC835418), RP-6685 (NSC848927), peposertib (NSC802822), ceralasertib (NSC780249), elimusertib (NSC800525), camonsertib (NSC841442), AZD-1390 (NSC803789), olaparib (NSC753686), talazoparib (NSC767125), rucaparib (NSC756644), sotorasib (NSC818433), MRTX-1133 (NSC836407), SN-38 (NSC673596), topotecan (NSC609699), epotoside (NSC141540), doxorubicin (NSC123127), gemcitabine (NSC613327), 5-fluorouracil (NSC19893), paclitaxel (NSC125973), vemurafenib (NSC761431), MSA-2 (NSC828583), SN-011 (NSC837082), adavosertib (NSC754352), prexasertib (NSC758257), carboplatin (NSC241240) and oxaliplatin (NSC266046), were obtained from the National Cancer Institute (NCI) Developmental Therapeutics Program Chemical Repository (21). The FDA-approved anticancer drug set is available from the Developmental Therapeutics Program at https://dtp.cancer.gov/organization/dscb/obtaining/. […] The stock solutions were prepared in dimethyl sulfoxide (DMSO, Sigma-Aldrich, St. Louis, MO, cat. D2650), except for the platinum compounds which were prepared in saline (Quality Biological, Gaithersburg, MD, cat. 114-055-101), at 800-fold the tested concentration and stored at -70 degrees C prior to their use. All drugs and investigational agents were tested over a range starting from a high concentration at or near the clinical Cmax and decreasing in half-log increments. If the clinical Cmax for an agent had not been determined, the highest concentration tested was 10 microM, except for SN-38, which was tested at a high concentration of 1 microM.
Cell Culture. All cells were maintained in an incubator at 37 degrees C and 5% CO2 with 95% humidity. The PDC lines were cultured according to standard operating procedures established by the NCI PDMR (https://pdmr.cancer.gov). Table 3 of the manuscript, lists the cell lines along with the number of the three cell types plated to form the mct-spheroids and media for tumor cell growth. After thawing, all PDC lines, except 997537-175-T-J1-PDC and 415267-285-R-J2-PDC, were cultured in Matrigel-coated flasks prepared with a working solution of 1X Ham's F-12 nutrient mix, without supplementation (Thermo Fisher Scientific, cat. 11765054), 100 U/mL penicillin-streptomycin (Thermo Fisher Scientific, cat. 15140122), and 2.5% Matrigel (Corning Inc., Corning, NY, cat. 354248) for the first three passages. The two PDC lines 997537-175-T-J1-PDC and 415267-285-R-J2-PDC were cultured on uncoated flasks. The 857933-349-R-J2-PDC line was cultured in 6C/Colon 1B media containing advanced DMEM/F-12 (Thermo Fisher Scientific, cat. 12634028), 10 mM HEPES (Thermo Fisher Scientific, cat. 15630080), 1X GlutaMAX supplement (Thermo Fisher Scientific, cat. 35050061), 0.1 mg/mL primocin (InvivoGen, San Diego, CA, cat. ant-pm-2), 10% defined fetal bovine serum, heat inactivated (HyClone Laboratories Inc., Logan, UT, cat. SH30070.03HI), 50% L-WRN conditioned media (ATCC, cat. CRL-3276), 1.25 mM N-Acetyl-L-cysteine (Sigma-Aldrich, cat. A9165), 10 mM nicotinamide (Sigma-Aldrich, cat. N0636), 1X B-27 supplement (Thermo Fisher Scientific, cat. 17504044), 1X N-2 supplement (Thermo Fisher Scientific, cat. […]

[1] = second compound 0.0316 µM, first compound 0.0316 µM
[2] = second compound 0.0316 µM, first compound 0.1 µM
[3] = second compound 0.0316 µM, first compound 0.316 µM
[4] = second compound 0.0316 µM, first compound 1 µM
[5] = second compound 0.0316 µM, first compound 3.16 µM
[6] = second compound 0.0316 µM, first compound 10 µM
[7] = second compound 0.1 µM, first compound 0.0316 µM
[8] = second compound 0.1 µM, first compound 0.1 µM
[9] = second compound 0.1 µM, first compound 0.316 µM
[10] = second compound 0.1 µM, first compound 1 µM
[11] = second compound 0.1 µM, first compound 3.16 µM
[12] = second compound 0.1 µM, first compound 10 µM
[13] = second compound 0.316 µM, first compound 0.0316 µM
[14] = second compound 0.316 µM, first compound 0.1 µM
[15] = second compound 0.316 µM, first compound 0.316 µM
[16] = second compound 0.316 µM, first compound 1 µM
[17] = second compound 0.316 µM, first compound 3.16 µM
[18] = second compound 0.316 µM, first compound 10 µM
[19] = second compound 1 µM, first compound 0.0316 µM
[20] = second compound 1 µM, first compound 0.1 µM
[21] = second compound 1 µM, first compound 0.316 µM
[22] = second compound 1 µM, first compound 1 µM
[23] = second compound 1 µM, first compound 3.16 µM
[24] = second compound 1 µM, first compound 10 µM
[25] = second compound 3.16 µM, first compound 0.0316 µM
[26] = second compound 3.16 µM, first compound 0.1 µM
[27] = second compound 3.16 µM, first compound 0.316 µM
[28] = second compound 3.16 µM, first compound 1 µM
[29] = second compound 3.16 µM, first compound 3.16 µM
[30] = second compound 3.16 µM, first compound 10 µM
[31] = second compound 10 µM, first compound 0.0316 µM
[32] = second compound 10 µM, first compound 0.1 µM
[33] = second compound 10 µM, first compound 0.316 µM
[34] = second compound 10 µM, first compound 1 µM
[35] = second compound 10 µM, first compound 3.16 µM
[36] = second compound 10 µM, first compound 10 µM
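Note: spheroids exposed to compounds for seven days before readout.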

SMILES: CC1COCCN1c1cc(C2(S(C)(=N)=O)CC2)nc(-c2ccnc3[nH]ccc23)n1 (stereo unspecified) + COC1C(OC(N)=O)C(O)C(Oc2ccc3c(O)c(NC(=O)c4ccc(O)c(CC=C(C)C)c4)c(=O)oc3c2C)OC1(C)C
- IC50 (second compound 0.0316 µM): 4.83 µM
- IC50 (second compound 0.1 µM): 4.54 µM
- IC50 (second compound 0.316 µM): 4.01 µM
- IC50 (second compound 1 µM): 4.46 µM
- IC50 (second compound 3.16 µM): 4.77 µM
- IC50 (second compound 10 µM): 4.93 µM
- viability, T/C [1]: 105%
- viability, T/C [2]: 107%
- viability, T/C [3]: 80.2%
- viability, T/C [4]: 77.6%
- viability, T/C [5]: 70.1%
- viability, T/C [6]: 27.7%
- viability, T/C [7]: 85.6%
- viability, T/C [8]: 84.5%
- viability, T/C [9]: 73.7%
- viability, T/C [10]: 73.3%
- viability, T/C [11]: 57.2%
- viability, T/C [12]: 34.2%
- viability, T/C [13]: 84.9%
- viability, T/C [14]: 86.1%
- viability, T/C [15]: 74.7%
- viability, T/C [16]: 77.8%
- viability, T/C [17]: 53.6%
- viability, T/C [18]: 33%
- viability, T/C [19]: 101%
- viability, T/C [20]: 98.7%
- viability, T/C [21]: 79.1%
- viability, T/C [22]: 72.1%
- viability, T/C [23]: 55.2%
- viability, T/C [24]: 37.9%
- viability, T/C [25]: 94.6%
- viability, T/C [26]: 89.5%
- viability, T/C [27]: 97%
- viability, T/C [28]: 86.4%
- viability, T/C [29]: 57.2%
- viability, T/C [30]: 37.2%
- viability, T/C [31]: 118%
- viability, T/C [32]: 79.4%
- viability, T/C [33]: 85.7%
- viability, T/C [34]: 77.2%
- viability, T/C [35]: 55.7%
- viability, T/C [36]: 38.6%

SMILES: CNCc1ccc(-c2[nH]c3cc(F)cc4c3c2CCNC4=O)cc1 + COC1C(OC(N)=O)C(O)C(Oc2ccc3c(O)c(NC(=O)c4ccc(O)c(CC=C(C)C)c4)c(=O)oc3c2C)OC1(C)C
- IC50 (second compound 0.0316 µM): > 10 µM
- IC50 (second compound 0.1 µM): > 10 µM
- IC50 (second compound 0.316 µM): > 10 µM
- IC50 (second compound 1 µM): > 10 µM
- IC50 (second compound 3.16 µM): > 10 µM
- IC50 (second compound 10 µM): > 10 µM
- viability, T/C [1]: 85.1%
- viability, T/C [2]: 90%
- viability, T/C [3]: 93.8%
- viability, T/C [4]: 89.9%
- viability, T/C [5]: 87.1%
- viability, T/C [6]: 69.5%
- viability, T/C [7]: 103%
- viability, T/C [8]: 87.7%
- viability, T/C [9]: 88.9%
- viability, T/C [10]: 117%
- viability, T/C [11]: 99.2%
- viability, T/C [12]: 106%
- viability, T/C [13]: 88.5%
- viability, T/C [14]: 96.9%
- viability, T/C [15]: 102%
- viability, T/C [16]: 111%
- viability, T/C [17]: 103%
- viability, T/C [18]: 92.3%
- viability, T/C [19]: 97.2%
- viability, T/C [20]: 97.2%
- viability, T/C [21]: 67.9%
- viability, T/C [22]: 83.5%
- viability, T/C [23]: 117%
- viability, T/C [24]: 103%
- viability, T/C [25]: 82.5%
- viability, T/C [26]: 102%
- viability, T/C [27]: 90.3%
- viability, T/C [28]: 87.2%
- viability, T/C [29]: 104%
- viability, T/C [30]: 88.8%
- viability, T/C [31]: 66.3%
- viability, T/C [32]: 92.3%
- viability, T/C [33]: 84.3%
- viability, T/C [34]: 74.9%
- viability, T/C [35]: 95.3%
- viability, T/C [36]: 90.5%

SMILES: O=C(c1cc(Cc2n[nH]c(=O)c3ccccc23)ccc1F)N1CCN(C(=O)C2CC2)CC1 + COC1C(OC(N)=O)C(O)C(Oc2ccc3c(O)c(NC(=O)c4ccc(O)c(CC=C(C)C)c4)c(=O)oc3c2C)OC1(C)C
- IC50 (second compound 0.0316 µM): > 10 µM
- IC50 (second compound 0.1 µM): > 10 µM
- IC50 (second compound 0.316 µM): > 10 µM
- IC50 (second compound 1 µM): > 10 µM
- IC50 (second compound 3.16 µM): > 10 µM
- IC50 (second compound 10 µM): > 10 µM
- viability, T/C [1]: 125%
- viability, T/C [2]: 126%
- viability, T/C [3]: 90.8%
- viability, T/C [4]: 100%
- viability, T/C [5]: 109%
- viability, T/C [6]: 84.1%
- viability, T/C [7]: 94%
- viability, T/C [8]: 130%
- viability, T/C [9]: 94.4%
- viability, T/C [10]: 88.2%
- viability, T/C [11]: 102%
- viability, T/C [12]: 79.3%
- viability, T/C [13]: 123%
- viability, T/C [14]: 123%
- viability, T/C [15]: 112%
- viability, T/C [16]: 115%
- viability, T/C [17]: 92.9%
- viability, T/C [18]: 97%
- viability, T/C [19]: 93.4%
- viability, T/C [20]: 103%
- viability, T/C [21]: 87.1%
- viability, T/C [22]: 91.2%
- viability, T/C [23]: 104%
- viability, T/C [24]: 104%
- viability, T/C [25]: 92.8%
- viability, T/C [26]: 96.8%
- viability, T/C [27]: 96.3%
- viability, T/C [28]: 81.6%
- viability, T/C [29]: 96.1%
- viability, T/C [30]: 86.5%
- viability, T/C [31]: 84.5%
- viability, T/C [32]: 121%
- viability, T/C [33]: 79.3%
- viability, T/C [34]: 82.7%
- viability, T/C [35]: 120%
- viability, T/C [36]: 90%

From PubChem BioAssay AID1963836 (Molecular Pharmacology Branch, DTP, NCI, 2024)
